# Assay results published in paper PMC6219668 (Oncotarget, 2018).
# Test system: panel of nearly 500 cancer cell lines
# Experiment: Cancer Cell Line Encyclopedia profiling, 3-day CellTiter-Glo
# Type: cell-based
# Details: Homo sapiens
smiles,measurement,setting,value
"CN(C)C(=O)c1cc2cnc(Nc3ccc(N4CCNCC4)cn3)nc2n1C1CCCC1 [Ribociclib, 7-cyclopentyl-2-(5-piperazin-1-yl-pyridin-2-ylamino)-7H-pyrrolo[2,3-d]pyrimidine-6-carboxylic acid dimethylamide]",EC50,HPAF-II,> 8 µM
same,IC50,HPAF-II,> 8 µM
same,EC50,HSC-2,> 8 µM
same,IC50,HSC-2,> 8 µM
same,EC50,HT1197,1.84 µM
same,IC50,HT1197,> 8 µM
same,EC50,HT-29,> 8 µM
same,IC50,HT-29,5.83 µM
same,EC50,HT-144,> 8 µM
same,IC50,HT-144,> 8 µM
same,EC50,HT-1080,2.73 µM
same,IC50,HT-1080,> 8 µM
same,EC50,HepG2,0.231 µM
same,IC50,HepG2,> 8 µM
same,EC50,Hs 294T,4.66 µM
same,IC50,Hs 294T,> 8 µM
same,EC50,Hs 683,> 8 µM
same,IC50,Hs 683,> 8 µM
same,EC50,Hs 695T,> 8 µM
same,IC50,Hs 695T,> 8 µM
same,EC50,Hs746T,0.436 µM
same,IC50,Hs746T,> 8 µM
same,EC50,Hs-578T,> 8 µM
same,IC50,Hs-578T,> 8 µM
same,EC50,HuCCT-1,> 8 µM
same,IC50,HuCCT-1,> 8 µM
same,EC50,HuH-1,> 8 µM
same,IC50,HuH-1,> 8 µM
same,EC50,HuP-T3,> 8 µM
same,IC50,HuP-T3,> 8 µM
same,EC50,HuP-T4,2.24 µM
same,IC50,HuP-T4,4.3 µM
same,EC50,HuT78,> 8 µM
same,IC50,HuT78,> 8 µM
same,EC50,IGR-37,0.207 µM
same,IC50,IGR-37,> 8 µM
same,EC50,IGROV-1,> 8 µM
same,IC50,IGROV-1,> 8 µM
same,EC50,IM95,> 8 µM
same,IC50,IM95,> 8 µM
same,EC50,IMR-32,0.287 µM
same,IC50,IMR-32,1.56 µM
same,EC50,JVM-3,> 8 µM
same,IC50,JVM-3,> 8 µM
same,EC50,Jurkat,3.75 µM
same,IC50,Jurkat,3.69 µM
same,EC50,KALS-1,> 8 µM
same,IC50,KALS-1,> 8 µM
same,EC50,KARPAS-299,0.878 µM
same,IC50,KARPAS-299,> 8 µM
same,EC50,KARPAS-422,> 8 µM
same,IC50,KARPAS-422,> 8 µM
same,EC50,KCL-22,> 8 µM
same,IC50,KCL-22,6.12 µM
same,EC50,KMS-11,0.233 µM
same,IC50,KMS-11,> 8 µM
same,EC50,KMS-12-BM,> 8 µM
same,IC50,KMS-12-BM,> 8 µM
same,EC50,KNS-42,0.134 µM
same,IC50,KNS-42,> 8 µM
same,EC50,KNS-62,0.934 µM
same,IC50,KNS-62,> 8 µM
same,IC50,KU812,> 8 µM
same,EC50,KYSE-30,> 8 µM
same,IC50,KYSE-30,> 8 µM
same,EC50,KYSE-70,1.2 µM
same,IC50,KYSE-70,5.61 µM
same,EC50,KYSE-140,0.436 µM
same,IC50,KYSE-140,> 8 µM
same,EC50,KYSE-150,2.92 µM
same,IC50,KYSE-150,> 8 µM
same,EC50,KYSE-180,0.507 µM
same,IC50,KYSE-180,> 8 µM
same,EC50,KYSE-410,> 8 µM
same,IC50,KYSE-410,> 8 µM
same,EC50,KYSE-450,> 8 µM
same,IC50,KYSE-450,> 8 µM
same,EC50,KYSE-510,> 8 µM
same,IC50,KYSE-510,> 8 µM
same,EC50,KYSE-520,6.06 µM
same,IC50,KYSE-520,> 8 µM
same,EC50,L-363,1.04 µM
same,IC50,L-363,> 8 µM
same,EC50,L-428,2.03 µM
same,IC50,L-428,> 8 µM
same,EC50,LCLC-103H,> 8 µM
same,IC50,LCLC-103H,> 8 µM
same,EC50,LN-18,> 8 µM
same,IC50,LN-18,> 8 µM
same,EC50,LN-229,> 8 µM
same,IC50,LN-229,> 8 µM
same,EC50,LOX IMVI,2.92 µM
same,IC50,LOX IMVI,> 8 µM
same,EC50,LS-123,> 8 µM
same,IC50,LS-123,> 8 µM
same,EC50,LS-411N,3.42 µM
same,IC50,LS-411N,1.71 µM
same,EC50,LS-513,> 8 µM
same,IC50,LS-513,> 8 µM
same,EC50,Lu-99,0.564 µM
same,IC50,Lu-99,3.69 µM
same,EC50,M059J,> 8 µM
same,IC50,M059J,> 8 µM
same,EC50,MC116,> 8 µM
same,IC50,MC116,> 8 µM
same,EC50,MCF7,0.343 µM
same,IC50,MCF7,1.37 µM
same,EC50,MDA-MB-157,> 8 µM
same,IC50,MDA-MB-157,> 8 µM
same,EC50,MDA-MB-175-VII,> 8 µM
same,IC50,MDA-MB-175-VII,> 8 µM
same,EC50,MDA-MB-415,> 8 µM
same,IC50,MDA-MB-415,> 8 µM
same,EC50,MDA-MB-435S,0.207 µM
same,IC50,MDA-MB-435S,0.775 µM
same,EC50,MDA-MB-436,> 8 µM
same,IC50,MDA-MB-436,> 8 µM
same,EC50,MDA-MB-453,0.166 µM
same,IC50,MDA-MB-453,> 8 µM
same,EC50,MDA-MB-468,0.347 µM
same,IC50,MDA-MB-468,> 8 µM
same,EC50,MEC1,> 8 µM
same,IC50,MEC1,> 8 µM
same,EC50,MEG-01,0.392 µM
same,IC50,MEG-01,> 8 µM
same,EC50,MES-SA,0.839 µM
same,IC50,MES-SA,> 8 µM
same,EC50,MFE-280,> 8 µM
same,IC50,MFE-280,> 8 µM
same,EC50,MFE-296,0.163 µM
same,IC50,MFE-296,0.848 µM
same,EC50,MG-63,0.239 µM
same,IC50,MG-63,> 8 µM
same,EC50,MIA PaCa-2,2.36 µM
same,IC50,MIA PaCa-2,5.57 µM
same,EC50,MINO,0.266 µM
same,IC50,MINO,0.456 µM
same,EC50,MKN-7,> 8 µM
same,IC50,MKN-7,> 8 µM
same,EC50,MKN-45,0.23 µM
same,IC50,MKN-45,> 8 µM
same,EC50,MKN-74,> 8 µM
same,IC50,MKN-74,> 8 µM
same,EC50,MOLP-8,> 8 µM
same,IC50,MOLP-8,> 8 µM
same,EC50,MSTO-211H,> 8 µM
same,IC50,MSTO-211H,> 8 µM
same,EC50,Malme-3M,0.00254 µM
same,IC50,Malme-3M,> 8 µM
same,EC50,MeWo,2.57 µM
same,IC50,MeWo,2.57 µM
same,EC50,NCI-H23,> 8 µM
same,IC50,NCI-H23,> 8 µM
same,EC50,NCI-H28,> 8 µM
same,IC50,NCI-H28,6.1 µM
same,EC50,NCI-H211,0.368 µM
same,IC50,NCI-H211,> 8 µM
same,EC50,NCI-H226,> 8 µM
same,IC50,NCI-H226,> 8 µM
same,EC50,NCI-H358,6.86 µM
same,IC50,NCI-H358,> 8 µM
same,EC50,NCI-H441,0.337 µM
same,IC50,NCI-H441,> 8 µM
same,EC50,NCI-H460,> 8 µM
same,IC50,NCI-H460,> 8 µM
same,EC50,NCI-H520,> 8 µM
same,IC50,NCI-H520,> 8 µM
same,EC50,NCI-H522,> 8 µM
same,IC50,NCI-H522,> 8 µM
same,EC50,NCI-H647,> 8 µM
same,IC50,NCI-H647,> 8 µM
same,EC50,NCI-H650,2.43 µM
same,IC50,NCI-H650,> 8 µM
same,EC50,NCI-H661,> 8 µM
same,IC50,NCI-H661,> 8 µM
same,EC50,NCI-H727,1.06 µM
same,IC50,NCI-H727,> 8 µM
same,EC50,NCI-H747,> 8 µM
same,IC50,NCI-H747,> 8 µM
same,EC50,NCI-H810,> 8 µM
same,IC50,NCI-H810,> 8 µM
same,EC50,NCI-H1048,> 8 µM
same,IC50,NCI-H1048,> 8 µM
same,EC50,NCI-H1092,> 8 µM
same,IC50,NCI-H1092,> 8 µM
same,EC50,NCI-H1155,2.66 µM
same,IC50,NCI-H1155,> 8 µM
same,EC50,NCI-H1299,1.51 µM
same,IC50,NCI-H1299,> 8 µM
same,EC50,NCI-H1355,0.471 µM
same,IC50,NCI-H1355,> 8 µM
same,EC50,NCI-H1373,> 8 µM
same,IC50,NCI-H1373,> 8 µM
same,EC50,NCI-H1563,> 8 µM
same,IC50,NCI-H1563,> 8 µM
same,EC50,NCI-H1573,> 8 µM
same,IC50,NCI-H1573,> 8 µM
same,EC50,NCI-H1581,> 8 µM
same,IC50,NCI-H1581,> 8 µM
same,EC50,NCI-H1648,> 8 µM
same,IC50,NCI-H1648,> 8 µM
same,EC50,NCI-H1650,> 8 µM
same,IC50,NCI-H1650,> 8 µM
same,EC50,NCI-H1651,> 8 µM
same,IC50,NCI-H1651,> 8 µM
same,EC50,NCI-H1666,> 8 µM
